Data taken from US20230010299A1, “HETEROCYCLIC TRPML1 AGONISTS” (LIBRA THERAPEUTICS, INC., priority 2019, published 2023).
pEC50: −log10 of the molar value. Read-outs that look alike come from different tables or passages of the source.

Experiments:
Format in all cases: cell-based
TRPML1 [1] = target: T1, TRPML1 (Homo sapiens, UniProt Q9GZU1); experiment: Cellular TRPML1 assay (FLIPR TETRA, GCaMP6f calcium read-out); settings: HEK T-REx/GCaMP6f/TRPML1 cells; Ca2+ response over 300 s, normalized to ML-SA1 50 μM; Ca2+ free or Optimem condition not given; read-out: Ec50 (Activity of TRPML1 agonists)
T1 construct: expressed in transfected cells
Procedure, shortened: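 HEK T-REx cells stably expressing TRPML1 and GCaMP6f, assayed 24 h after seeding in Ca2+-free Tyrode's (pH 7.4) or Opti-MEM. Compounds injected on FLIPR Tetra (0.5% DMSO) in dose-response from 100 μM (1:2) or 50 μM (1:3.16); fluorescence kinetics 300 s, referenced to 50 μM ML-SA1 stimulator control.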

[2] = system: autophagy reporter Rosella (LC3 tag) in HeK293 cell line; experiment: Autophagy assay (reporter Rosella, imaging); settings: HeK293 cells stably expressing reporter Rosella, 18 hours incubation, reference Torin-1 1 μM as max signal, read-out: Secondary Assays Autophagy qAC50
Procedure: Buffers and Reagents • Tyrode's buffer with 2 mM Ca^2+ in-house solution (130 mM NaCl, 5 mM KCl, 2 mM CaCl2), 1 mM MgCl2, 5 mM NaHCO3, 20 mM HEPES in water at pH 7.4; sterile filtered) • DMSO (Sigma) • Bis-benzimide H 33342 trihydrochloride (Hoechst 33342; Sigma-Aldrich) • Reference molecule (agonist): Torin-1, (#4247, Tocris) stock 1.2 mM in DMSO, stored at −20° C.
Reporter of Autophagy and Cell Line
Reporter Rosella: a fluorescent-based chimera constitutes by two fluorescent proteins, Green and Red variants, acting as a bimodal indicator of pH. […] The reporter is fused to sequence for autophagosome localization (LC3 tag).
The reporter Rosella have been stably expressed in HeK293 cell line and used as read-out.
Experiments have been performed in 384 MTP poly-lysine coated well format. Cells have been seeded in 384-w at a density of 6000 cells/well in 25 μl/well complete growth medium without antibiotics. Twenty-four hours later, cells have been treated with compounds and incubated for further 18 hours. Then the cells have been imaged and assayed for the response to various compounds using the reporter for autophagy expressed in the cells as readout.
The experiments were performed in a 384-well format according to the following procedure: • 24 h after seeding, cells were incubated with compounds at the desired concentration, and with the reference molecule (agonist) Torin-1 at a top concentration of 1 μM (max signal), for 18 hours at 37° C. and 5% CO2. The final percentage of DMSO was 0.3% in all the conditions. • Then the culture medium was carefully removed to avoid cells detachment and to discard red phenol into the medium and that can interfere with the measurements. • Staining of the nuclei was obtained by incubating the cells with 8 μM/well of Hoechst 3342 in standard Tyrode's buffer for 20 min at RT • Then the cells were carefully washed two times with standard Tyrode's buffer • Finally, the samples were acquired by recording three fluorescence emission channels (green, red and blue) at 20× magnification and with at least 3-4 fields of view per well in an Operetta CLS microscope (PerkinElmer). • Image analysis was performed by using Harmony software (PerkinElmer). The image analysis involved the following steps: flat-field illumination correction, nuclei segmentation, cell segmentations and identification of vesicles/granules within the cytosol compartments and representing the autophagy vesicles. Measurements of signal intensity ratio (Green to Red) and number of autophagy vesicles per cells were used to obtain information on the effects of compounds on the autophagy flux. • Data from image analysis measurements were finally loaded and analyzed for normalization and fitting procedures in Genedata Screener© software.

TRPML1 [3] = target: T1, TRPML1; experiment: TRPML1 automated patch-clamp (QPatch 16X); settings: HEK T-REx/GcaMP6f/TRPML1 cells, current with compound/current in vehicle, extracellular pH 4.6
Procedure: TRPML1—Automated Patch-Clamp
HEK T-REx/GcaMP6f/TRPML1 cells were cultured in DMEM High Glucose (Lonza BioWhittaker cat. BE12-604F/U1; 500 mL) supplemented with Fetal Bovine Serum TET-FREE (Euroclone cat. EC S0182L; 50 mL, Penicillin-Streptomycin (BioWhittaker, cat. DE17-602E; 5 mL of 100× Solution), G418 (Sigma, cat. G8168; 0.25 mg/ml) and Zeocyn (InvivoGen, cat. ant-zn-1; 50 μg/ml).
HEK T-REx/GcaMP6f/TRPML1 cells were seeded 48 or 72 hours before experiment, at a concentration of 8*10^6/4*10^6 cells onto a T225 flask. Just before the experiments, cells were washed twice with D-PBS w/o Ca^2+/Mg^2+ (Euroclone cat. ECB4004L) and detached from the flask with trypsin-EDTA (Sigma cat. T4174; diluted 1/10). Cells were then re-suspended in the suspension solution: 25 mL EX-CELL ACF CHO medium(Sigma cat. C5467); 0.625 mL HEPES (Sigma cat. H0887); 0.25 mL of 100× Penicillin/Streptomycin (Euroclone cat. ECB3001D), 0.1 mL of Soybean Trypsin Inhibitor 10 mg/mL (Sigma cat. T6522) and placed on the QPatch 16X.
Dilution from stock were prepared just before the experiments in the extracellular solution (0.25% final DMSO concentration). DMSO solution was obtained from AppliChem (cat. A3672)
Patch Clamp Solutions: • Intracellular solution (mM): 120 CsMeSO3, 4 NaCl, 2 MgCl2, 10 EGTA, 20 HEPES, 2 Mg-ATP (pH 7.2 with CsOH). • Extracellular solution (mM): 140 NaGluconate, 5 KCl, 1 MgCl2, 2 CaCl2), 10 Glucose, 10 MES (pH 4.6 with HCl).
Patch Clamp Analysis—QPatch 16X
For the voltage clamp experiments on TRPML1, data were sampled at 5 KHz. After establishment of the seal and the passage in the whole cell configuration, the cells were held at −20 mV and the TRPML1 current was evoked using the voltage protocol illustrated in FIG. 2, applied every 5 sec. (50 ms at −20 mV; 20 ms at −120 mV, 1000 ms ramp from −120 to […]; 20 ms at +40 mV, and back to −20 mV); in the absence (vehicle period, i.e. 0.25% DMSO) and in the presence of increasing concentrations (3) of the compound under investigation.
Agonists: For data collection, the Sophion proprietary software was used and the analysis was performed off-line using Excel and GraphPad Prism (V 8.00). Results are reported in Table 6, expressed as TRPML1 current fold increase evoked by the compound under investigation (i.e. current in the presence of the compound/current in vehicle).

T1 sequence (Q9GZU1 whole entry): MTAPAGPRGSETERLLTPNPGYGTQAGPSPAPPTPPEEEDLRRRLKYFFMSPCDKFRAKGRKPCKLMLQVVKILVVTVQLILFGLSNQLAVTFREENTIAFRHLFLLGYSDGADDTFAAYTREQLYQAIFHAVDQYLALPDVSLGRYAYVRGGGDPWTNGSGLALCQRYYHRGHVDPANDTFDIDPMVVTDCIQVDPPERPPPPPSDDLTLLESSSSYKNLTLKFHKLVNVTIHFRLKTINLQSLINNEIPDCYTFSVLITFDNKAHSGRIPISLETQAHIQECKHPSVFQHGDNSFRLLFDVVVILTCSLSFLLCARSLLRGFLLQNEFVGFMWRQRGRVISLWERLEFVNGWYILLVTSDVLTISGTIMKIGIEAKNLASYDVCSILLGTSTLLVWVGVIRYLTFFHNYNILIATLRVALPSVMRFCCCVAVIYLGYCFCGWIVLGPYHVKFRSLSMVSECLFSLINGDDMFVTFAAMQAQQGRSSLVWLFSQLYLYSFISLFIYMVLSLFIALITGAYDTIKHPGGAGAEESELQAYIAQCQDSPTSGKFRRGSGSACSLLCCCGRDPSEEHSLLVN

Structure (SMILES)	pEC50 (TRPML1 [1])	pEC50 ([2]; Homo sapiens)	Qpatch Assay TRPML1 agonism Current fold increase Mean ± SEM (n) (TRPML1 [3]; 0.3 μM compound)	Qpatch Assay TRPML1 agonism Current fold increase Mean ± SEM (n) (TRPML1 [3]; 3.0 μM compound)	Qpatch Assay TRPML1 agonism Current fold increase Mean ± SEM (n) (TRPML1 [3]; 30 μM compound)	pEC50 [2]
COC1CCCN(c2ccccc2NS(=O)(=O)c2ccc(S(=O)(=O)N(C)C)cc2)CC1 (racemic) [Example 40, N1-(2-(4-methoxyazepan-1-yl)phenyl)-N4,N4-dimethylbenzene-1,4-disulfonamide]	5.52	5.89	–	–	–	–
CCc1ccc(S(=O)(=O)Nc2ccccc2N2CCC(C(=O)OC(C)(C)C)CC2)cc1 [Example 19, tert-butyl 1-(2-((4-ethylphenyl)sulfonamido)phenyl)piperidine-4-carboxylate]	5.68	6.22	–	–	–	–
CCN(C(=O)c1ccc(S(=O)(=O)N(C)C)cc1)c1ccccc1N1CCN(C(=O)OC(C)(C)C)CC1 [Example 20, tert-butyl 4-(2-(4-(N,N-dimethylsulfamoyl)-N-ethylbenzamido)phenyl)piperazine-1-carboxylate]	5.47	6.34	–	–	–	–
CN(C)S(=O)(=O)c1ccc(S(=O)(=O)Nc2ccccc2N2CCC(F)(F)CC2)cc1 [Example 33, N4-[2-(4,4-difluoropiperidin-1-yl)phenyl]-N1,N1-dimethylbenzene-1,4-disulfonamide]	4.97	5.89	–	–	–	–
CC(C)N(C(=O)c1ccc(S(=O)(=O)N(C)C)cc1)c1ccccc1N1CCN(C(=O)OC(C)(C)C)CC1 [Example 46, tert-butyl 4-(2-(4-(N,N-dimethylsulfamoyl)-N-isopropylbenzamido)phenyl)piperazine-1-carboxylate]	5.03	5.89	–	–	–	–
Cc1cc(S(=O)(=O)Nc2ccccc2N2CCN(C(=O)OC(C)(C)C)CC2)c(C)o1 [Example 58, tert-butyl 4-(2-((2,5-dimethylfuran)-3-sulfonamido)phenyl)piperazine-1-carboxylate]	5.64	4.65	–	–	–	–
Cc1ccc(S(=O)(=O)Nc2ccccc2N2CCC(Oc3ccccn3)CC2)c(C)c1 [Example 65, 2,4-dimethyl-N-(2-(4-(pyridin-2-yloxy)piperidin-1-yl)phenyl)benzenesulfonamide]	5.46	4.50	–	–	–	–
CCCOC1CCN(c2ccccc2NS(=O)(=O)c2cc(C)sc2C)CC1 [Example 68, 2,5-dimethyl-N-(2-(4-propoxypiperidin-1-yl)phenyl)thiophene-3-sulfonamide]	5.34	4.82	–	–	–	–
COc1ccc(S(=O)(=O)Nc2ccccc2N2CCN(C(=O)OC(C)(C)C)CC2)cc1 [Example 84, t-butyl 4-[2-(4-methoxybenzenesulfonamido)phenyl]piperazine-1-carboxylate]	5.38	–	8.6 ± 1.3 (2)	32.9 ± 3.5 (2)	42.7 ± 1.4 (2)	–
CN(C)S(=O)(=O)c1ccc(S(=O)(=O)Nc2ccccc2N2CCCCCC2)cc1 [Example 85, N4-[2-(azepan-1-yl)phenyl]-N 1 ,N1-dimethylbenzene-1,4-disulfonamide]	5.80	–	17.7 ± 5.5 (4)	206 ± 167 (2)	260 ± 202 (2)	–
CC(C)CNC(=O)C1CCN(c2ccccc2NS(=O)(=O)c2ccc(S(=O)(=O)N(C)C)cc2)CC1 [Example 88, 1-{2-[4-(dimethylsulfamoyl)benzenesulfonamido]phenyl}-N-(2-methylpropyl)piperidine-4-carboxamide]	5.19	–	−0.066 ± 0.080 (3)	3.9 ± 2.5 (3)	125 ± 75.3 (3)	–
Cc1ccc(S(=O)(=O)Nc2ccccc2N2CCC(C(=O)OC(C)(C)C)CC2)cc1 [Example 90]	5.60	–	140 ± 44.1 (4)	83.1 ± 34.0 (2)	112 ± 38.1 (2)	–
COc1ccc(S(=O)(=O)Nc2ccccc2N2CCC(C(=O)OC(C)(C)C)CC2)cc1 [Example 91]	5.48	–	3.1 ± 1.2 (3)	21.7 ± 7.9 (3)	58.8 ± 16.6 (3)	–
CC(C)N(C(=O)c1ccc(S(C)(=O)=O)cc1)c1ccccc1N1CCN(C(=O)OC(C)(C)C)CC1 [Example 96, tert-butyl 4-(2-(N-isopropyl-4-(methylsulfonyl)benzamrdo)phenyl)piperazine-1-carboxylate]	5.14	–	–	–	–	4.95
Cc1nc(S(=O)(=O)Nc2ccccc2N2CCC(Oc3ccccn3)CC2)c(C)s1 [Example 99, 2,5-dimethyl-N-(2-(4-(pyridin-2-yloxy)piperidin-1-yl)phenyl)thiazole-4-sulfonamide]	5.30	5.22	–	–	–	–
